Molecules are shown by their SMILES. The source made the active and inactive calls. No stated cut-off is given here; in the data, actives have a measured IC50 and inactives only a lower limit.

In the assay the target is Envelope glycoprotein gp160 (Human immunodeficiency virus 1, UniProt Q6QLK5). Nature of the assay: inhibitors of HIV fusion peptide binding, primary screen, biochemical, uHTS, fluorescence dequenching (AID 1986).
Envelope glycoprotein gp160, sequence (Q6QLK5 whole entry, the tested form may be a part): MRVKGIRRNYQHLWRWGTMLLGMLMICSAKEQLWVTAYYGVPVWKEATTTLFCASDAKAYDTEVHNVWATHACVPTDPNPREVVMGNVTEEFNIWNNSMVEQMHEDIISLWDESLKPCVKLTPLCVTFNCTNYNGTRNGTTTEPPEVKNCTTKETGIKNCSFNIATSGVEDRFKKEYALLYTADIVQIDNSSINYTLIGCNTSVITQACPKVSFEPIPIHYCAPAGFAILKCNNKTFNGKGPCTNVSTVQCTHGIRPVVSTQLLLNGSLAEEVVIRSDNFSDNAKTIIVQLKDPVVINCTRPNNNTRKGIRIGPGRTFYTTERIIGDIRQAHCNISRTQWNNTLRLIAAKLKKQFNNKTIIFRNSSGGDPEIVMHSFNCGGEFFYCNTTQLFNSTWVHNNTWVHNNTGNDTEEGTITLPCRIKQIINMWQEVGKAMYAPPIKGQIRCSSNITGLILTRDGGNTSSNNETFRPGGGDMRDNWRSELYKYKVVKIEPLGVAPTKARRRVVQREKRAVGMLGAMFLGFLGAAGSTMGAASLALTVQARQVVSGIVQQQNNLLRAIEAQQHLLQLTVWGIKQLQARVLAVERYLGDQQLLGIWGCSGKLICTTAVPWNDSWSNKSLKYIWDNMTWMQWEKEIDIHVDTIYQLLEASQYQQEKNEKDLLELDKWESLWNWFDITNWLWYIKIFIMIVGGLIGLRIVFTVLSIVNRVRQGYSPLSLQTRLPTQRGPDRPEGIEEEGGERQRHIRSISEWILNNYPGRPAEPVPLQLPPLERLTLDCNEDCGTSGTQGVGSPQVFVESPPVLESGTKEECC
As a reminder, the IC50 is the concentration at which inhibition is half-maximal. In the case of `O=C1NN(c2ccccc2)C(=O)/C1=C\c1cccc(OC(=O)c2cccs2)c1`, the IC50 was 33.9 µM (active).
In the case of `CC1(c2ccccc2)CC(C)(C)N2C(=O)/C(=C3\SC(=S)NC3=O)c3cccc1c32` (centres undefined), the IC50 is 83.8 µM (active).
Regarding `O=C(COc1ccc(Cl)cc1)Nc1cc(NC(=O)COc2ccc(Cl)cc2)cc(C(=O)O)c1`, the IC50 was 26.4 µM (active).
Take `Cc1cc(Cl)ccc1OC(C)C(=O)Nc1ccc(C(=O)Nc2ccccc2C(=O)O)cc1` (centres undefined): the IC50 is 13.1 µM (active).

Values taken from ChEMBL document CHEMBL1201862, “PubChem BioAssay data set” (2004).
